Test results as given in ChEMBL document CHEMBL5352447, “Development of [1,2]oxazoloisoindoles tubulin polymerization inhibitors: Further chemical modifications and potential therapeutic effects against lymphomas” (Eur J Med Chem, 2022).

How the values were obtained:
CCRF-CEM = test: Antiproliferative activity against human CCRF-CEM cells assessed as cell growth inhibition incubated for 72 hrs by MTT assay; assay type: functional
HL-60(TB) = test: Antiproliferative activity against human HL-60(TB) cells assessed as cell growth inhibition incubated for 72 hrs by MTT assay; assay type: functional
MOLT-4 = test: Antiproliferative activity against human MOLT-4 cells assessed as cell growth inhibition incubated for 72 hrs by MTT assay; assay type: functional
RPMI-8226 = test: Antiproliferative activity against human RPMI-8226 cells assessed as cell growth inhibition incubated for 72 hrs by MTT assay; assay type: functional
EKVX = test: Antiproliferative activity against human EKVX cells assessed as cell growth inhibition incubated for 72 hrs by MTT assay; assay type: functional
HOP-62 = test: Antiproliferative activity against human HOP-62 cells assessed as cell growth inhibition incubated for 72 hrs by MTT assay; assay type: functional
NCI-H226 = test: Antiproliferative activity against human NCI-H226 cells assessed as cell growth inhibition incubated for 72 hrs by MTT assay; assay type: functional
NCI-H23 = test: Antiproliferative activity against human NCI-H23 cells assessed as cell growth inhibition incubated for 72 hrs by MTT assay; assay type: functional
NCI-H460 = test: Antiproliferative activity against human NCI-H460 cells assessed as cell growth inhibition incubated for 72 hrs by MTT assay; assay type: functional
NCI-H522 = test: Antiproliferative activity against human NCI-H522 cells assessed as cell growth inhibition incubated for 72 hrs by MTT assay; assay type: functional
HCC 2998 = test: Antiproliferative activity against human HCC 2998 cells assessed as cell growth inhibition incubated for 72 hrs by MTT assay; assay type: functional
HCT-116 = test: Antiproliferative activity against human HCT-116 cells assessed as cell growth inhibition incubated for 72 hrs by MTT assay; assay type: functional
HCT-15 = test: Antiproliferative activity against human HCT-15 cells assessed as cell growth inhibition incubated for 72 hrs by MTT assay; assay type: functional
HT-29 = test: Antiproliferative activity against human HT-29 cells assessed as cell growth inhibition incubated for 72 hrs by MTT assay; assay type: functional
SW-620 = test: Antiproliferative activity against human SW620 cells assessed as cell growth inhibition incubated for 72 hrs by MTT assay; assay type: functional
SF-268 = test: Antiproliferative activity against human SF-268 cells assessed as cell growth inhibition incubated for 72 hrs by MTT assay; assay type: functional
SF-295 = test: Antiproliferative activity against human SF-295 cells assessed as cell growth inhibition incubated for 72 hrs by MTT assay; assay type: functional
SF-539 = test: Antiproliferative activity against human SF-539 cells assessed as cell growth inhibition incubated for 72 hrs by MTT assay; assay type: functional
SNB-19 = test: Antiproliferative activity against human SNB-19 cells assessed as cell growth inhibition incubated for 72 hrs by MTT assay; assay type: functional
LOX IMVI = test: Antiproliferative activity against human LOX IMVI cells assessed as cell growth inhibition incubated for 72 hrs by MTT assay; assay type: functional
Malme-3M = test: Antiproliferative activity against human Malme-3M cells assessed as cell growth inhibition incubated for 72 hrs by MTT assay; assay type: functional
SK-MEL-2 = test: Antiproliferative activity against human SK-MEL-2 cells assessed as cell growth inhibition incubated for 72 hrs by MTT assay; assay type: functional
SK-MEL-28 = test: Antiproliferative activity against human SK-MEL-28 cells assessed as cell growth inhibition incubated for 72 hrs by MTT assay; assay type: functional
SK-MEL-5 = test: Antiproliferative activity against human SK-MEL-5 cells assessed as cell growth inhibition incubated for 72 hrs by MTT assay; assay type: functional
UACC-62 = test: Antiproliferative activity against human UACC-62 cells assessed as cell growth inhibition incubated for 72 hrs by MTT assay; assay type: functional
IGROV-1 = test: Antiproliferative activity against human IGROV-1 cells assessed as cell growth inhibition incubated for 72 hrs by MTT assay; assay type: functional
OVCAR-4 = test: Antiproliferative activity against human OVCAR-4 cells assessed as cell growth inhibition incubated for 72 hrs by MTT assay; assay type: functional
OVCAR-8 = test: Antiproliferative activity against human OVCAR-8 cells assessed as cell growth inhibition incubated for 72 hrs by MTT assay; assay type: functional
NCI/ADR-RES = test: Antiproliferative activity against human NCI-ADR-RES cells assessed as cell growth inhibition incubated for 72 hrs by MTT assay; assay type: functional
SK-OV-3 = test: Antiproliferative activity against human SK-OV-3 cells assessed as cell growth inhibition incubated for 72 hrs by MTT assay; assay type: functional
786-0 = test: Antiproliferative activity against human 786-0 cells assessed as cell growth inhibition incubated for 72 hrs by MTT assay; assay type: functional
A498 = test: Antiproliferative activity against human A498 cells assessed as cell growth inhibition incubated for 72 hrs by MTT assay; assay type: functional
ACHN = test: Antiproliferative activity against human ACHN cells assessed as cell growth inhibition incubated for 72 hrs by MTT assay; assay type: functional
RXF 393 = test: Antiproliferative activity against human RXF 393 cells assessed as cell growth inhibition incubated for 72 hrs by MTT assay; assay type: functional
UO-31 = test: Antiproliferative activity against human UO-31 cells assessed as cell growth inhibition incubated for 72 hrs by MTT assay; assay type: functional
PC-3 = test: Antiproliferative activity against human PC-3 cells assessed as cell growth inhibition incubated for 72 hrs by MTT assay; assay type: functional
MDA-MB-231 = test: Antiproliferative activity against human MDA-MB-231 cells assessed as cell growth inhibition incubated for 72 hrs by MTT assay; assay type: functional
Hs-578T = test: Antiproliferative activity against human Hs-578T cells assessed as cell growth inhibition incubated for 72 hrs by MTT assay; assay type: functional
MDA-MB-468 = test: Antiproliferative activity against human MDA-MB-468 cells assessed as cell growth inhibition incubated for 72 hrs by MTT assay; assay type: functional
VL51 = test: Antiproliferative activity against human VL51 cells assessed as proliferating cells at 1 uM incubated for 72 hrs by MTT assay relative to control; assay type: functional
[1] = Antiproliferative activity against human MINO cells assessed as proliferating cells at 1 uM incubated for 72 hrs by MTT assay relative to control; assay type: functional
[2] = Antiproliferative activity against human HBL1 cells assessed as proliferating cells at 1 uM incubated for 72 hrs by MTT assay relative to control; assay type: functional
SU-DHL10 [3] = test: Antiproliferative activity against human SU-DHL-10 cells assessed as proliferating cells at 1 uM incubated for 72 hrs by MTT assay relative to control; assay type: functional
[4] = Antiproliferative activity against human MINO cells assessed as inhibition of cell proliferation incubated for 72 hrs by MTT assay; assay type: functional, cell-based
[5] = Antiproliferative activity against human HBL1 cells assessed as inhibition of cell proliferation incubated for 72 hrs by MTT assay; assay type: functional, cell-based; conditions: HBL1, 72 h
SU-DHL10 [6] = test: Antiproliferative activity against human SU-DHL-10 cells assessed as inhibition of cell proliferation incubated for 72 hrs by MTT assay; assay type: functional, cell-based; conditions: SU-DHL10, 72 h
OVCAR-5 = test: Antiproliferative activity against human OVCAR-5 cells assessed as cell growth inhibition incubated for 72 hrs by MTT assay; assay type: functional

Structure (SMILES): COc1ccc(Cn2cc3c(c2-c2cc(OC)c(OC)c(OC)c2)CCc2c(CN4CCOCC4)noc2-3)cc1
- GI50 (CCRF-CEM): 1260 nM
- GI50 (HL-60(TB)): 390 nM
- GI50 (MOLT-4): 3060 nM
- GI50 (RPMI-8226): 770 nM
- GI50 (EKVX): 1400 nM
- GI50 (HOP-62): 1000 nM
- GI50 (NCI-H226): 890 nM
- GI50 (NCI-H23): 2170 nM
- GI50 (NCI-H460): 520 nM
- GI50 (NCI-H522): 300 nM
- GI50 (HCC 2998): 2.17 µM
- GI50 (HCT-116): 500 nM
- GI50 (HCT-15): 510 nM
- GI50 (HT-29): 640 nM
- GI50 (SW-620): 430 nM
- GI50 (SF-268): 0.78 µM
- GI50 (SF-295): 470 nM
- GI50 (SF-539): 440 nM
- GI50 (SNB-19): 860 nM
- GI50 (LOX IMVI): 620 nM
- GI50 (Malme-3M): 500 nM
- GI50 (SK-MEL-2): 550 nM
- GI50 (SK-MEL-28): > 100000 nM
- GI50 (SK-MEL-5): 1860 nM
- GI50 (UACC-62): 610 nM
- GI50 (IGROV-1): 810 nM
- GI50 (OVCAR-4): 6.84 µM
- GI50 (OVCAR-8): 1920 nM
- GI50 (NCI/ADR-RES): 430 nM
- GI50 (SK-OV-3): 0.97 µM
- GI50 (786-0): 770 nM
- GI50 (A498): 320 nM
- GI50 (ACHN): 630 nM
- GI50 (RXF 393): 290 nM
- GI50 (UO-31): 760 nM
- GI50 (PC-3): 650 nM
- GI50 (MDA-MB-231): 2250 nM
- GI50 (Hs-578T): 500 nM
- GI50 (MDA-MB-468): 340 nM
- Activity (VL51): 53.3%
- Activity [1]: 5.3%
- Activity [2]: 33.9%
- Activity (SU-DHL10 [3]): 0.7%
- IC50 [4]: 500 nM
- IC50 [5]: 500 nM
- IC50 (SU-DHL10 [6]): 500 nM

Structure (SMILES): CCOC(=O)c1noc2c1CCc1c-2cn(Cc2ccc(OC)cc2)c1-c1cc(OC)c(OC)c(OC)c1
- GI50 (CCRF-CEM): 1040 nM
- GI50 (HL-60(TB)): 450 nM
- GI50 (MOLT-4): 2700 nM
- GI50 (RPMI-8226): 2850 nM
- GI50 (EKVX): 3920 nM
- GI50 (HOP-62): 3000 nM
- GI50 (NCI-H226): > 100000 nM
- GI50 (NCI-H23): 3040 nM
- GI50 (NCI-H460): 1000 nM
- GI50 (NCI-H522): 370 nM
- GI50 (HCC 2998): 5.17 µM
- GI50 (HCT-116): 400 nM
- GI50 (HCT-15): 500 nM
- GI50 (HT-29): 850 nM
- GI50 (SW-620): 500 nM
- GI50 (SF-268): 8.07 µM
- GI50 (SF-295): 3020 nM
- GI50 (SF-539): 1840 nM
- GI50 (SNB-19): 670 nM
- GI50 (LOX IMVI): 650 nM
- GI50 (SK-MEL-2): 4290 nM
- GI50 (SK-MEL-28): 1900 nM
- GI50 (SK-MEL-5): 490 nM
- GI50 (UACC-62): 2740 nM
- GI50 (IGROV-1): 2450 nM
- GI50 (OVCAR-4): 20.5 µM
- GI50 (OVCAR-5): 4.72 µM
- GI50 (OVCAR-8): 3040 nM
- GI50 (NCI/ADR-RES): 3520 nM
- GI50 (SK-OV-3): 5.23 µM
- GI50 (786-0): 3650 nM
- GI50 (A498): 2770 nM
- GI50 (ACHN): 3510 nM
- GI50 (RXF 393): 2170 nM
- GI50 (UO-31): 3440 nM
- GI50 (PC-3): 2900 nM
- GI50 (MDA-MB-231): 2700 nM
- GI50 (Hs-578T): 2990 nM
- GI50 (MDA-MB-468): 5620 nM
- Activity (VL51): 79.7%
- Activity [1]: 41.3%
- Activity [2]: 70.1%
- Activity (SU-DHL10 [3]): 59%
- IC50 [4]: 1400 nM
- IC50 [5]: 1700 nM
- IC50 (SU-DHL10 [6]): 2000 nM
